According to patent US11001583B2, “Dihydropyrrolopyridine inhibitors of ROR-gamma” (Vitae Pharmaceuticals, LLC, priority 2014, dated 2021):

What was measured:
[1] = biological target: hERG (human ether-à-go-go-related gene) potassium ion channel (Homo sapiens (Human), UniProt Q12809); experiment: hERG Assay (Assay 4); type: cell-based; details: patch clamp, HEK 293 cells
Protocol: Compounds of the invention were tested in vitro against the hERG (human ether-à-go-go-related gene) potassium ion channel (a surrogate for IKr, the rapidly activating delayed rectifier cardiac potassium ion channel).
The buffer was HEPES-buffered physiological saline (HB-PS) solution composed of: 137 mM NaCl, 4.0 mM KCl, 1.8 mM CaCl2, 1 mM MgCl2, 10 mM HEPES, 10 mM glucose, pH adjusted to 7.4 with NaOH, and 0.3% DMSO. Chemicals used in solution preparation were purchased from Sigma-Aldrich (St. Louis, Mo.), unless otherwise noted, and were of ACS reagent grade purity or higher.
HEK (human embryonic kidney) 293 cells were stably transfected with hERG cDNA.
For the patch clamp experiment, onset and steady state inhibition of hERG potassium current was measured using a pulse pattern with fixed amplitudes (depolarization: +20 mV for 2 s; repolarization: −50 mV for 2 s) repeated at 10 s intervals from a holding potential of −80 mV. Peak tail current was measured during the 2 s step to −50 mV. A steady state was maintained for at least 30 seconds before applying compound or positive control (cisapride). Peak tail currents were measured until a new steady state was achieved.
Data acquisition and analyses were performed using the suite of pCLAMP® (ver. 8.2) programs (MDS Analytical Technologies, Sunnyvale, Calif.). Steady state was defined by the limiting constant rate of change with time (linear time dependence). The steady state before and after each compound application was used to calculate the percentage of current inhibited at each concentration.
Concentration-response data were fit to an equation of the following form: % Inhibition={1−1/[1+([Test]/IC50)N]}*100
where [Test] was the compound concentration, IC50 was the compound concentration at half-maximal inhibition, N was the Hill coefficient, and % Inhibition was the percentage of current inhibited at each compound concentration. Nonlinear least squares fits were solved with the Solver add-in for Excel 2003 (Microsoft, Wash.) and the IC50 was calculated.

IL-17A production = experiment: Human Whole Blood Assay (Assay 3); type: cell-based; details: IL-17A secretion, 50% blood/media
Protocol: Human Whole Blood Assay (Assay 3)
Compounds of the invention were tested in the human whole blood assay to measure their effects on IL-17A production as determined by cytokine secretion into 50% blood/media supernatant. Mixtures of sodium heparinized whole blood (isolated from healthy human donors) and the T cell activator CytoStim, in the presence or absence of compound, were plated in sterilized, tissue culture-treated 24-well plates. Specifically, the mixtures in each well were as follows: (1) 500 μL of whole blood, (2) 250 μL of compound diluted into RPMI-1640 media containing 10% HyClone™ FCS (Thermo Fisher Scientific, Waltham, Mass.), Gibco® Pen/Strep and Gibco® NEAA (Life Technologies, Grand Island, N.Y.), and (3) 250 μL, of CytoStim (Miltenyi Biotech, Germany) diluted to a final concentration of 10 μL/mL in complete cell culture medium.
Mixtures were incubated at 37° C./5% CO2 for 48 h, after which, 200 μL of clean supernatant (i.e., no red blood cells) from each well was transferred to a well in a 96-well plate. IL-17A cytokine expression was determined using 25 μL of the transferred supernatant diluted with 25 μL of Diluent 43 from the Human IL-17A V-PLEX™ kit (cat. #K151RFD-4, Meso Scale Discovery, Rockville, Md.). The assay was performed according to the manufacturer's instructions using included reagents. The IL-17A V-PLEX™ plates were read using the Meso Scale Discovery Imager (Model 1200). The levels of IL-17A were extrapolated from a standard curve using a four-parameter non-linear fitting model and expressed as pg/mL. These values were regressed against concentrations of the tested compounds to derive IC50 values using a four-parameter non-linear fitting model.

full-length RORγt = full-length RORγt (Homo sapiens (Human), UniProt P51449); experiment: RORγt 5×RORE Assay in Jurkat Cells (Assay 2); type: cell-based; details: 5×RORE luciferase reporter, read-out: RORγt5X IC50 Range (nM) (Assay 2)
Protocol: RORγt 5×RORE Assay in Jurkat Cells (Assay 2)
Compounds of the present invention were tested for RORγ inverse agonist activity in a cell-based, transcriptional activity assay. […] (Promega, Cat. #N1021) using KpnI and HindIII restriction sites. […] Tested compounds were added to the cells in the same media (final concentration of DMSO was 0.1% (v/v)), and the plates were incubated at 37° C./5% CO2 for 16-18 hr. Luciferase activity in the conditioned supernatants was determined with NanoGlo® assay reagents (Promega, Cat. #N1130).

[2] = biological target: recombinant RORγ Ligand Binding Domain (LBD) protein (Homo sapiens (Human), UniProt P51449); experiment: Radio-Ligand RORγ Binding Assay (Assay 1); details: competition with 25-hydroxy [26,27-3H]-cholesterol, SPA; read-out: RORγ Binding Ki Range (nM) (Assay 1)
Protocol: Radio-Ligand RORγ Binding Assay (Assay 1)
Compounds of the present invention were tested for ability to bind to RORγ in a cell-free competition assay with commercially available radio-ligand (RL), 25-hydroxy [26,27-^3H]-cholesterol (PerkinElmer, Cat. #NET674250UC), for a ligand binding site on a recombinant RORγ Ligand Binding Domain (LBD) protein expressed as a 6×His-Glutathione-S-Transferase (GST) fusion. […] The plate was shaken at 700 rpm for 20 min and incubated for 10 min at rt, after which 40 μL of poly-Lys YSi SPA beads (PerkinElmer, Cat. #RPNQ0010) were added to achieve 50 μg of the beads per well. The plate was incubated on an orbital shaker for 20 min and then for 10 min without agitation at rt. SPA signal for tritium beta radiation was registered on PerkinElmer Microbeta plate reader. […] The percent inhibition vs. concentration data were fit into a four-parameter model, and IC50 values were calculated from the fit as the concentrations corresponding to the inflection points on the dose-response curves.

Chain of hERG (human ether-à-go-go-related gene) potassium ion channel (Q12809 whole entry): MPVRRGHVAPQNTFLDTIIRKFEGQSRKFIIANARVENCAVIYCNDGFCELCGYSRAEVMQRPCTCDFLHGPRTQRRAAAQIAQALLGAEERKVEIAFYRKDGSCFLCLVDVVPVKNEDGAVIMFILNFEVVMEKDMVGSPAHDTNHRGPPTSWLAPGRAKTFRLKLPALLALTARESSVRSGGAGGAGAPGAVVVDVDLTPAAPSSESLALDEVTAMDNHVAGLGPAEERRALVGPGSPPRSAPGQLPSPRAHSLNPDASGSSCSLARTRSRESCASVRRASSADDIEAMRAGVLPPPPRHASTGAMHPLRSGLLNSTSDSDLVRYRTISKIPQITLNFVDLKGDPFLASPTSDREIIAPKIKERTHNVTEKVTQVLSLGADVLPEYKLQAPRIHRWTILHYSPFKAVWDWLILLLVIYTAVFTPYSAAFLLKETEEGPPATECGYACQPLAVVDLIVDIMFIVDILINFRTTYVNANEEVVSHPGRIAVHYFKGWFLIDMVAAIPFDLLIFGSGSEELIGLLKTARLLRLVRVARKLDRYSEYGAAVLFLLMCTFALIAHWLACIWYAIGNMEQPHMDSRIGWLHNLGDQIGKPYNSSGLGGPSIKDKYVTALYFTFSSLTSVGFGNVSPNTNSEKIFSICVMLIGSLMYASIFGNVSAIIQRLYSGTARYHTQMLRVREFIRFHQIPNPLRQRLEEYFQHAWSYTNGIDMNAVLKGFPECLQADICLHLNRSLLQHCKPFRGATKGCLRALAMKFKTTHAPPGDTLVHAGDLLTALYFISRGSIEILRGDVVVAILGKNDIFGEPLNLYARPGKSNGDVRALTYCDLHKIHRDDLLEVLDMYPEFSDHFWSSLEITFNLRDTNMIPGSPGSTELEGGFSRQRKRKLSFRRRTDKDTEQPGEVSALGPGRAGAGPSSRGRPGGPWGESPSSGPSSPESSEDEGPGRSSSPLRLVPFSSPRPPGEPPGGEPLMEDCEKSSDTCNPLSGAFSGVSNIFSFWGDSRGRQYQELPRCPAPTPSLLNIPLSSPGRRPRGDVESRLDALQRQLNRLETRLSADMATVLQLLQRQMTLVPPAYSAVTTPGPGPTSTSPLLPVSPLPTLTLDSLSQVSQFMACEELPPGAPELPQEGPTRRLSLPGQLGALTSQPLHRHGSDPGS
Chain of recombinant RORγ Ligand Binding Domain (LBD) protein (P51449 269-508): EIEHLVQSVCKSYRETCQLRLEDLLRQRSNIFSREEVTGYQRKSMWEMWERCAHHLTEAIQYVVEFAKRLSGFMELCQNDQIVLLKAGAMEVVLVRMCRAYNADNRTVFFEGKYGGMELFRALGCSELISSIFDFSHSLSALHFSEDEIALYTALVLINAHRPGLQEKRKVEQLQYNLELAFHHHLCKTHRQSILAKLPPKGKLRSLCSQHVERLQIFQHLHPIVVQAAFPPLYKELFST
Chain of full-length RORγt (P51449 other isoform, or with tags, fused parts or gaps): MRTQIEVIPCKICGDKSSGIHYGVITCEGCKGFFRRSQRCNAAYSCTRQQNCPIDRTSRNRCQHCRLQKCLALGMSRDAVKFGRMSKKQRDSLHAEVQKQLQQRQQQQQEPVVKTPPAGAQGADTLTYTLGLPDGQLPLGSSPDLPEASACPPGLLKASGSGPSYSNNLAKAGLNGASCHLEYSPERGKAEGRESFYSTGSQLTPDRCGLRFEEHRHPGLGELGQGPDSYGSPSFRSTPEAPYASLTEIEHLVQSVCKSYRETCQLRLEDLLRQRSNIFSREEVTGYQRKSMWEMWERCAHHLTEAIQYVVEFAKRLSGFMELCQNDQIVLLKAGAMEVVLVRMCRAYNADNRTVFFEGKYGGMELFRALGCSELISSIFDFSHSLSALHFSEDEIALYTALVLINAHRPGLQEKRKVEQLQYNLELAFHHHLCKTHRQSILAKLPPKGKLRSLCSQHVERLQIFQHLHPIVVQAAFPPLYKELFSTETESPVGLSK

SMILES | hERG Assay (Compound at 3 μM) % Inhibition (Assay 4) [1] | IC50 (IL-17A production; CytoStim, 48 h) | further results
CC[C@H]1c2ncc(C(=O)N[C@@H](COC)c3ccc(S(=O)(=O)CC)cc3)cc2CN1C[C@H]1CC[C@H](C(F)(F)F)CC1 [Compound 1, (S)-7-ethyl-N—((R)-1-(4-(ethylsulfonyl)phenyl)-2-methoxyethyl)-6-((trans-4-(trifluoromethyl)cyclohexyl)methyl)-6,7-dihydro-5H-pyrrolo[3,4-b]pyridine-3-carboxamide] | 24.3% |  | 
CCS(=O)(=O)c1ccc(CNC(=O)c2cnc3c(c2)CN(C[C@H]2CC[C@H](C(F)(F)F)CC2)[C@H]3C(C)C)cc1 |  |  | hERG Assay (Compound at 3 μM) % Inhibition (Assay 4) ([1]; comparator compounds): 57.0%
CCS(=O)(=O)c1ccc([C@H](COC)NC(=O)c2cnc3c(c2)CN(C[C@H]2CC[C@H](C(F)(F)F)CC2)[C@H]3C(C)C)cc1 [Compound 15] | 50% | < 100 nM | 
CCS(=O)(=O)c1ccc([C@@H](COC(N)=O)NC(=O)c2cnc3c(c2)CN(C[C@H]2CC[C@H](C(F)(F)F)CC2)[C@H]3C(C)C)cc1 [Compound 12] | 38.8% | 100 to 200 nM | 
CC[C@H]1c2ncc(C(=O)N[C@@H](COC)c3ccc(S(=O)(=O)CC)cc3)cc2CN1C[C@@H]1CC[C@@H](C(F)(F)F)OC1 (single isomer, unassigned) [Compound 4] |  | < 100 nM | 
CCOC[C@H](NC(=O)c1cnc2c(c1)CN(C[C@H]1CC[C@H](C(F)(F)F)CC1)[C@H]2C(C)C)c1ccc(S(=O)(=O)CC)cc1 [Compound 7] |  |  | IC50 (full-length RORγt): 100 to 1000 nM; Ki [2]: < 100 nM
CC[C@H]1c2ncc(C(=O)N[C@@H](COC(N)=O)c3ccc(S(=O)(=O)CC)cc3)cc2CN1C[C@H]1CC[C@H](C(F)(F)F)CC1 [Compound 2, (R)-2-((S)-7-ethyl-6-((trans-4-(trifluoromethyl)cyclohexyl)methyl)-6,7-dihydro-5H-pyrrolo[3,4-b]pyridine-3-carboxamido)-2-(4-(ethylsulfonyl)phenyl)ethyl Carbamate] | 38.8% |  | 
CC[C@H]1c2ncc(C(=O)N[C@@H](COC)c3ccc(S(=O)(=O)CC)cc3)cc2CN1C[C@H]1CC[C@H](C(F)(F)F)OC1 (single isomer, unassigned) [Compound 3] | 24.3% | < 100 nM | 
CCS(=O)(=O)c1ccc(CNC(=O)c2cnc3c(c2)CN(C[C@H]2CC[C@H](C(F)(F)F)CC2)[C@H]3C(C)C)nc1 |  |  | IC50 (IL-17A production; comparator compounds): > 200 nM; hERG Assay (Compound at 3 μM) % Inhibition (Assay 4) ([1]; comparator compounds): 45.4%
